≈ marks a conversion by molar mass, not a printed value.
How the values were obtained:
Br. melitensis SS 19 = type: cell-based; details: unit assumed
Ps. aeruginosa SS 10 = type: cell-based; details: Brain Heart Infusion, estolate and RV11-RV15 previously hydrolized, unit assumed
N. meningitidis SS 04 = type: cell-based; details: Brain Heart Infusion, estolate and RV11-RV15 previously hydrolized, unit assumed
Staph. albus SS 03 = type: cell-based; details: Brain Heart Infusion, estolate and RV11-RV15 previously hydrolized, unit assumed
Acute toxicity = type: in vivo; details: mouse, in vivo, po, 14400 min
Description: The acute toxicity was assessed in Swiss white mice by oral and intravenous route. The LD50 values have been calculated by the methods of Probits, starting from the mortality recorded 10 days after the treatment.

H. pertussis SS 03 = type: cell-based; details: Brain Heart Infusion, estolate and RV11-RV15 previously hydrolized, unit assumed
B. subtilis SS 127 = type: cell-based; details: Brain Heart Infusion, estolate and RV11-RV15 previously hydrolized, unit assumed
E. aerogenes SS 011 = type: cell-based; details: Brain Heart Infusion, estolate and RV11-RV15 previously hydrolized, unit assumed
Kl. aerogenes SS 71 = type: cell-based; details: Brain Heart Infusion, estolate and RV11-RV15 previously hydrolized, unit assumed
[1] = Histological examination of bronchi after SO2 inhalation; type: in vivo, Sprague Dawley male rats; details: oral, 500 mg/kg
Citrobacter SS 09 = type: cell-based; details: Brain Heart Infusion, estolate and RV11-RV15 previously hydrolized, unit assumed
B. anthranis SS 09 = type: cell-based; details: B. anthranis SS 09 (14 bis); Brain Heart Infusion; estolate and RV11-RV15 previously hydrolized; unit assumed
Staph. albus SS 04 = type: cell-based; details: Brain Heart Infusion, estolate and RV11-RV15 previously hydrolized, unit assumed
H. tubercolosis SS 03 = type: cell-based; details: Brain Heart Infusion, estolate and RV11-RV15 previously hydrolized, unit assumed
Description: (§1) In the following table I the MIC/ml values are indicated corresponding to the lowest concentration capable of inducing a complete inhibition of the bacterial development.

Kl. pneumoniae SS 04 = type: cell-based; details: Brain Heart Infusion, estolate and RV11-RV15 previously hydrolized, unit assumed
Description: as §1

Br. abortus SS 7 = type: cell-based; details: Brain Heart Infusion, estolate and RV11-RV15 previously hydrolized, unit assumed
Staph. aureus SS 07 [2] = assay: Experimental infection induced by Staph. aureus SS 07; type: in vivo, Swiss white mice; details: os; Staph. aureus SS 07; mg/kg of erythromycin; survival after 7 days; 10080 min
Method in brief: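 Swiss mice of 20 g infected parenterally with lethal amounts of Staph. aureus SS 07 or D. pneumoniae SS 23. Antibiotics were given at infection and again 6 and 24 h later. ED50 was derived from survival at 7 days.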

[3] = tested on: Strept. haemolyticus SS 17; type: cell-based; details: Brain Heart Infusion, estolate and RV11-RV15 previously hydrolized, unit assumed
B. subtilis ATCC 6633 = type: cell-based; details: Brain Heart Infusion, estolate and RV11-RV15 previously hydrolized, unit assumed
Cl. tetani SS 17 = type: cell-based; details: Brain Heart Infusion, estolate and RV11-RV15 previously hydrolized, unit assumed
Staph. aureus SS 07 [4] = type: cell-based; details: Brain Heart Infusion, estolate and RV11-RV15 previously hydrolized, unit assumed
C. diphtheriae SS 19 = type: cell-based; details: Brain Heart Infusion, estolate and RV11-RV15 previously hydrolized, unit assumed
E. coli SS 04 = type: cell-based; details: Brain Heart Infusion, estolate and RV11-RV15 previously hydrolized, unit assumed
E. coli SS 06 = type: cell-based; details: Brain Heart Infusion, estolate and RV11-RV15 previously hydrolized, unit assumed
H. influentiae SS 02 = type: cell-based; details: Brain Heart Infusion, estolate and RV11-RV15 previously hydrolized, unit assumed
E. coli SS 07 = type: cell-based; details: Brain Heart Infusion, estolate and RV11-RV15 previously hydrolized, unit assumed
D. pneumoniae SS 23 = type: cell-based; details: Brain Heart Infusion, estolate and RV11-RV15 previously hydrolized, unit assumed
Pr. vulgaris SS 10 = type: cell-based; details: Brain Heart Infusion, estolate and RV11-RV15 previously hydrolized, unit assumed
[5] = Mucolytic activity: obstruction of the bronchial tract after SO2 inhalation; type: in vivo, Sprague Dawley male rats; details: oral, 500 mg/kg; SO2, 15 days
Sr. marcescens SS 03 = type: cell-based; details: Brain Heart Infusion, estolate and RV11-RV15 previously hydrolized, unit assumed
N. gonorreae SS 27 = type: cell-based; details: Brain Heart Infusion, estolate and RV11-RV15 previously hydrolized, unit assumed
Pr. mirabilis SS 09 = type: cell-based; details: Brain Heart Infusion, estolate and RV11-RV15 previously hydrolized, unit assumed
S. infantis SS 08 = type: cell-based; details: Brain Heart Infusion, estolate and RV11-RV15 previously hydrolized, unit assumed
Staph. aureus SS 08 = type: cell-based; details: Brain Heart Infusion, estolate and RV11-RV15 previously hydrolized, unit assumed
S. heidelberg SS 18 = type: cell-based; details: Brain Heart Infusion, estolate and RV11-RV15 previously hydrolized, unit assumed
Staph. aureus SS 09 = type: cell-based; details: Brain Heart Infusion, estolate and RV11-RV15 previously hydrolized, unit assumed
C. albicans SS 04 = type: cell-based; details: Brain Heart Infusion, estolate and RV11-RV15 previously hydrolized, unit assumed
Staph. aureus SS 10 = type: cell-based; details: Brain Heart Infusion, estolate and RV11-RV15 previously hydrolized, unit assumed
Strept. faecalis SS 19 = type: cell-based; details: Brain Heart Infusion, estolate and RV11-RV15 previously hydrolized, unit assumed
E. coli SS 05 = type: cell-based; details: Brain Heart Infusion, estolate and RV11-RV15 previously hydrolized, unit assumed
B. anthranis SS 08 = type: cell-based; details: Brain Heart Infusion, estolate and RV11-RV15 previously hydrolized, unit assumed
Citrobacter SS 05 = type: cell-based; details: Brain Heart Infusion, estolate and RV11-RV15 previously hydrolized, unit assumed
[6] = tested on: Strept. haemolyticus SS 18; type: cell-based; details: Brain Heart Infusion, estolate and RV11-RV15 previously hydrolized, unit assumed

**Q.** For `CCC(=O)O[C@H]1[C@H](O[C@@H]2[C@@H](C)[C@H](O[C@H]3C[C@@](C)(OC)[C@@H](O)[C@H](C)O3)[C@@H](C)C(=O)O[C@H](CC)[C@@](C)(O)[C@H](O)[C@@H](C)C(=O)[C@H](C)C[C@@]2(C)O)O[C@H](C)C[C@@H]1N(C)C` [RV13, erythromycin-monopropionate-thiazolidin-carboxylate], which MIC (Br. melitensis SS 19) is on record?
**A.** The MIC was 3 µg/mL (≈ 3.8 µM).

**Q.** What about the MIC (Ps. aeruginosa SS 10) of the same compound?
**A.** Its MIC is 100 µg/mL (≈ 127 µM).

**Q.** And the MIC (N. meningitidis SS 04)?
**A.** The MIC was 0.8 µg/mL (≈ 1.01 µM).

**Q.** And the MIC (Staph. albus SS 03)?
**A.** Its MIC is 0.05 µg/mL (≈ 0.0633 µM).

**Q.** And the “LD50 (reliability limits)” value (Acute toxicity)?
**A.** The value was 3000 mg·kg.

**Q.** What about the MIC (H. pertussis SS 03) of the same compound?
**A.** Its MIC is 0.2 µg/mL (≈ 0.253 µM).

**Q.** What about the MIC (B. subtilis SS 127) of the same compound?
**A.** The MIC was 0.025 µg/mL (≈ 0.0316 µM).

**Q.** What about the MIC (E. aerogenes SS 011) of the same compound?
**A.** The MIC was 50 µg/mL (≈ 63.3 µM).

**Q.** What about the MIC (Kl. aerogenes SS 71) of the same compound?
**A.** The MIC was 100 µg/mL (≈ 127 µM).

**Q.** What about the “histological appearance of non obstructed bronchi” value ([1]; free non obstructed) of the same compound?
**A.** Its value is “presence of bronchi having almost normal appearance”.

**Q.** And the “histological appearance of obstructed bronchial tract” value ([1]; obstructed)?
**A.** Its value is “fully like that of the control animals”.

**Q.** What about the MIC (Citrobacter SS 09) of the same compound?
**A.** The MIC was greater than 200 µg/mL.

**Q.** And the MIC (B. anthranis SS 09)?
**A.** The MIC was 0.4 µg/mL (≈ 0.506 µM).

**Q.** What about the MIC (Staph. albus SS 04) of the same compound?
**A.** The MIC was 0.025 µg/mL (≈ 0.0316 µM).

**Q.** What about the MIC (H. tubercolosis SS 03) of the same compound?
**A.** Its MIC is 50 µg/mL (≈ 63.3 µM).

**Q.** And the MIC (Kl. pneumoniae SS 04)?
**A.** The MIC was 100 µg/mL (≈ 127 µM).

**Q.** What about the MIC (Br. abortus SS 7) of the same compound?
**A.** The MIC was 6 µg/mL (≈ 7.59 µM).

**Q.** What about the “ED50 (reliability limits)” value (Staph. aureus SS 07 [2]) of the same compound?
**A.** Its value is 2.20 (2.44-1.99) mg/kg.

**Q.** And the MIC [3]?
**A.** The MIC was 1.5 µg/mL (≈ 1.9 µM).

**Q.** And the MIC (B. subtilis ATCC 6633)?
**A.** The MIC was 0.025 µg/mL (≈ 0.0316 µM).

**Q.** What about the MIC (Cl. tetani SS 17) of the same compound?
**A.** Its MIC is 0.2 µg/mL (≈ 0.253 µM).

**Q.** And the MIC (Staph. aureus SS 07 [4])?
**A.** Its MIC is 0.025 µg/mL (≈ 0.0316 µM).

**Q.** What about the MIC (C. diphtheriae SS 19) of the same compound?
**A.** The MIC was 0.01 µg/mL (≈ 0.0127 µM).

**Q.** What about the MIC (E. coli SS 04) of the same compound?
**A.** Its MIC is 100 µg/mL (≈ 127 µM).

**Q.** What about the MIC (E. coli SS 06) of the same compound?
**A.** Its MIC is 50 µg/mL (≈ 63.3 µM).

**Q.** What about the MIC (H. influentiae SS 02) of the same compound?
**A.** The MIC was 1.5 µg/mL (≈ 1.9 µM).

**Q.** And the MIC (E. coli SS 07)?
**A.** Its MIC is 50 µg/mL (≈ 63.3 µM).

**Q.** What about the MIC (D. pneumoniae SS 23) of the same compound?
**A.** Its MIC is 0.025 µg/mL (≈ 0.0316 µM).

**Q.** And the MIC (Pr. vulgaris SS 10)?
**A.** The MIC was greater than 200 µg/mL.

**Q.** What about the “Partial obstruction (% incidence)” value [5] of the same compound?
**A.** The value was 20%.

**Q.** And the “Total obstruction, compact plug (% incidence)” value [5]?
**A.** The value was 20%.

**Q.** And the “Total obstruction, nodular mass (% incidence)” value [5]?
**A.** The value was 6.66%.

**Q.** What about the “Total obstruction, pimply mass (% incidence)” value [5] of the same compound?
**A.** Its value is 13.33%.

**Q.** And the MIC (Sr. marcescens SS 03)?
**A.** Its MIC is 100 µg/mL (≈ 127 µM).

**Q.** What about the MIC (N. gonorreae SS 27) of the same compound?
**A.** The MIC was 0.8 µg/mL (≈ 1.01 µM).

**Q.** What about the MIC (Pr. mirabilis SS 09) of the same compound?
**A.** The MIC was greater than 200 µg/mL.

**Q.** What about the MIC (S. infantis SS 08) of the same compound?
**A.** Its MIC is 100 µg/mL (≈ 127 µM).

**Q.** What about the MIC (Staph. aureus SS 08) of the same compound?
**A.** The MIC was 0.05 µg/mL (≈ 0.0633 µM).

**Q.** What about the MIC (S. heidelberg SS 18) of the same compound?
**A.** The MIC was 100 µg/mL (≈ 127 µM).

**Q.** And the MIC (Staph. aureus SS 09)?
**A.** The MIC was 0.1 µg/mL (≈ 0.127 µM).

**Q.** And the MIC (C. albicans SS 04)?
**A.** Its MIC is 100 µg/mL (≈ 127 µM).

**Q.** What about the MIC (Staph. aureus SS 10) of the same compound?
**A.** The MIC was 0.1 µg/mL (≈ 0.127 µM).

**Q.** And the MIC (Strept. faecalis SS 19)?
**A.** The MIC was 0.05 µg/mL (≈ 0.0633 µM).

**Q.** What about the MIC (E. coli SS 05) of the same compound?
**A.** The MIC was 50 µg/mL (≈ 63.3 µM).

**Q.** What about the MIC (B. anthranis SS 08) of the same compound?
**A.** The MIC was 0.4 µg/mL (≈ 0.506 µM).

**Q.** What about the MIC (Citrobacter SS 05) of the same compound?
**A.** Its MIC is greater than 200 µg/mL.

**Q.** What about the MIC [6] of the same compound?
**A.** Its MIC is 1.5 µg/mL (≈ 1.9 µM).

— patent US4476120A, “Thiolic derivatives of erythromycin having therapeutic activity, and pharmaceutical compositions containing them” (Sigma Tau Indistrie Farmaceutiche Riunites, p.A, priority 1982, dated 1984)
